In paper PMC12332404, “Cytochrome P450BM-3 and P450 11A1 retain Compound I (FeO^3+) chemistry with electrophilic substrates poised for Compound 0 (Fe^3+O2^−) reactions” (The Journal of Biological Chemistry, 2025):

Experiments:
P450BM-3 (102A1) [1] = target: T1, P450BM-3 (102A1) (Priestia megaterium, UniProt P14779); assay: UV-vis spectral binding titration (Type I shift, […] to […] nm)
T1 construct: gene cyp102A1
T1 sequence (P14779 1-1049): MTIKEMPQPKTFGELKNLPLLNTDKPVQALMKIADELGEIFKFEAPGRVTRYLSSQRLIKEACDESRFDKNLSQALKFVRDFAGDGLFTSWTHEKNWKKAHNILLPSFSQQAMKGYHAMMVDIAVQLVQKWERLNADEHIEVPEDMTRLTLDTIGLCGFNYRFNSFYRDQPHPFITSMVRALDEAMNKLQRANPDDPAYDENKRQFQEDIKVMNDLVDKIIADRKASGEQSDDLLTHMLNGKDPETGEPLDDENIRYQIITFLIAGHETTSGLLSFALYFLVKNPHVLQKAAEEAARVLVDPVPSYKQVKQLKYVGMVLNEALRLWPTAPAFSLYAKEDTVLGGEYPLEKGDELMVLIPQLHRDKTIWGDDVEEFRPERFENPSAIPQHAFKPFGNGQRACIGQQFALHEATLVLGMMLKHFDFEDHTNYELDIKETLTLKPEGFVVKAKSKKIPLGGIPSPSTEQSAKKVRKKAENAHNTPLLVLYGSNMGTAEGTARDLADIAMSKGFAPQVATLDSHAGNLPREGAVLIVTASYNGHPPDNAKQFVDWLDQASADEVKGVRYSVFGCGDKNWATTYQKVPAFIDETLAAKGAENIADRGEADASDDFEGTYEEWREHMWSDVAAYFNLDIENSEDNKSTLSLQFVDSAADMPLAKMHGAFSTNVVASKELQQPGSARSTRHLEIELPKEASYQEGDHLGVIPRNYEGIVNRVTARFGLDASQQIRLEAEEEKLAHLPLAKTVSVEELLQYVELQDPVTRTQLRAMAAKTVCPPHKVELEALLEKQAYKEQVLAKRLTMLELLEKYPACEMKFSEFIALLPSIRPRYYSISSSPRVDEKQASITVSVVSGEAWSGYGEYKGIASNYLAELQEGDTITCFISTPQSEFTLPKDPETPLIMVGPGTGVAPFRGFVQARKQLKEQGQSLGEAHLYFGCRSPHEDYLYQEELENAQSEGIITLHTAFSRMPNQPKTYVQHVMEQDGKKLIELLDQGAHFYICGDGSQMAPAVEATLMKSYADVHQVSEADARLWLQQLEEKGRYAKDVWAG

P450 11A1 = target: T2, P450 11A1 (Homo sapiens, UniProt P05108); assay: UV-vis spectral binding titration (Type II behavior); LC-MS turnover
T2 construct: gene CYP11A1
T2 sequence (P05108 40-521): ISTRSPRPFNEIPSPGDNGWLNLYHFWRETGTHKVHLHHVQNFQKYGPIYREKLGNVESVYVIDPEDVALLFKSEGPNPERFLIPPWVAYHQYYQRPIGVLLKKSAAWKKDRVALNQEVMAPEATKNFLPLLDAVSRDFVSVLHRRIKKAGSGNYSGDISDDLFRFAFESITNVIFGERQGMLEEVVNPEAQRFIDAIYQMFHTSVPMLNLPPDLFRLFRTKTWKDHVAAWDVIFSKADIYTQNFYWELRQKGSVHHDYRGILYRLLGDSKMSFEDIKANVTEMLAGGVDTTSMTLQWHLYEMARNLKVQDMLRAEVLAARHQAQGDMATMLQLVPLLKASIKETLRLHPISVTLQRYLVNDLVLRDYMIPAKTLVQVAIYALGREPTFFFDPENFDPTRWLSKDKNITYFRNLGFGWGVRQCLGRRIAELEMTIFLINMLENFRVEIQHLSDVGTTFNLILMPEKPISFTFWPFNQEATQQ

P450BM-3 (102A1) [2] = target: T1, P450BM-3 (102A1); assay: NADPH oxidation and LC-MS hydroxylation rate ([…] min^-1) with purified enzyme; assay type: biochemical
P450BM-3 (102A1) [3] = target: T1, P450BM-3 (102A1); assay: as above; assay type: biochemical; remark: listed apart in the source
P450BM-3 (102A1) [4] = target: T1, P450BM-3 (102A1); assay: as above; assay type: biochemical; remark: listed apart in the source

Q: How did the Kd (P450BM-3 (102A1) [1]) turn out when `CC(=O)CCCCCCCCCCC(=O)O` [12-oxo C13:0, 12-oxotridecanoic acid] was run?
A: The Kd was ~250 µM.

Q: Which Kd (P450 11A1) does the source give for `CC(C)CCC(=O)[C@@H](C)[C@H]1CC[C@H]2[C@@H]3CC=C4C[C@@H](O)CC[C@]4(C)[C@H]3CC[C@]12C` [22-oxocholesterol] here?
A: Its Kd is 43 ± 20 µM.

Q: For `CCCCCCCCCCCCCCCC(=O)O` [C16:0, palmitic acid], which “NADPH oxidation and LC-MS hydroxylation rate (100 min^-1) with purified enzyme” value (P450BM-3 (102A1) [2]) is on record?
A: The value was 100 min⁻¹.

Q: Which “NADPH oxidation and LC-MS hydroxylation rate (73 min^-1) with purified enzyme” value (P450BM-3 (102A1) [3]) does the source give for `CCCCCCCCCCCCCC(=O)O` [C14:0, tetradecanoic acid] here?
A: The value was 73 min⁻¹.

Q: Which “NADPH oxidation and LC-MS hydroxylation rate (2.4 min^-1) with purified enzyme” value (P450BM-3 (102A1) [4]) does the source give for `CCCCCCCCCCCC(=O)O` [C12:0, dodecanoic acid] here?
A: The value was 2.4 min⁻¹.
